Read-outs that look alike come from different tables or passages of the source.
Tests used:
[1] = clinical; conditions: human, in vivo
Excerpt: (§1) Patients underwent dynamic susceptibility contrast perfusion MRI (DSC-MRI) for quantification of relative cerebral blood volume (rCBV) values by region-of-interest analysis.

[2] = system: glioblastoma; assay: clinical
Excerpt: as §1

[3] = system: glioblastoma
Experimental: Normalized relative cerebral blood volume (rCBV) ratios were calculated by the mean rCBV within the 95% isodose radiation field one month post-radiation as compared to contralateral white matter outside of the radiation field.

[4] = system: U251 human GBM cells
[5] = in vivo; conditions: human
[6] = cited from earlier work
[7] = up to 320 μg/kg, healthy volunteers; cited from earlier work
[8] = system: human serum albumin and 1-acid glycoprotein; conditions: cited from earlier work
[9] = cited from earlier work; remark: listed apart in the source
[10] = system: peripheral blood (PB) CD34+ counts; conditions: cited from earlier work; for absolute CD34+ cell count (mean+/−SE): all patients
[11] = system: CD34+ cells; conditions: cited from earlier work
[12] = system: CD34+ stem cells; conditions: cited from earlier work
[13] = system: CD34+ stem cells; conditions: cited from earlier work; remark: listed apart in the source
[14] = system: BCR-ABL(+) leukemia (CML); conditions: cited from earlier work
[15] = system: AML; conditions: cited from earlier work
[16] = system: AML; conditions: cited from earlier work; remark: listed apart in the source
[17] = system: AML and MDS; conditions: cited from earlier work
[18] = system: MM; conditions: cited from earlier work
[19] = system: chronic lymphocytic leukemia (CLL); conditions: cited from earlier work
[20] = cited from earlier work; remark: listed apart in the source
[21] = target: CXCR4 (Homo sapiens, UniProt P61073); conditions: cited from earlier work
[22] = Preclinical animal toxicology studies; conditions: in vivo
[23] = cells collected by Plerixafor plus G-CSF
[24] = 23 evaluable patients, with bortezomib

Chain of CXCR4 (P61073 whole entry): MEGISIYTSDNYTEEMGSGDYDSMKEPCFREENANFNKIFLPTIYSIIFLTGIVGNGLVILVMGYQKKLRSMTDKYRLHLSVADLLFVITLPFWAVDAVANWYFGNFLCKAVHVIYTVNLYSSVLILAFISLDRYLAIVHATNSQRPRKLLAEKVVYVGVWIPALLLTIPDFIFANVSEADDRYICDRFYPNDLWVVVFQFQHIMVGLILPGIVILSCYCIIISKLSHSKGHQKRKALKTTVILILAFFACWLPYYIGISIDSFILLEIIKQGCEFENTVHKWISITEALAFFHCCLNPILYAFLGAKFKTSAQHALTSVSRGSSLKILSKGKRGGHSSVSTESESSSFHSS

c1cc(CN2CCCNCCNCCCNCC2)ccc1CN1CCCNCCNCCCNCC1 [Plerixafor]
concentration at 7 days [1]: ≥ 100 ng/mL
rCBV in the tumor bed compared to the postoperative pre-RT scan ([2]; DSC-MRI at 1 and 6 months post-RT, P<0.02, one way ANOVA): lower rCBV
patients alive ([2]; currently): 7 of 9
dose limiting toxicities (DLTs) ([2]; human, in vivo): no DLTs observed
longest survival since diagnosis ([2]; human, in vivo): 18 months
recommended phase II dose ([2]; human, in vivo, iv, 4 weeks): 16.6 µg/kg/h
rate of out of field recurrence ([3]; as of Feb. 7, 2017, expected 20%, p<0.03, Fisher's exact test): 77%
rCBV measured by DSC-MRI within the 95% isodose field ([3]; one month after radiation therapy, patients receiving Plerixafor compared to control, p<0.02): significant reduction
rCBV out of the radiation field ([3]; one-month post radiation therapy, Plerixafor compared to control patients): similar
blood flow to a tumor ([4]; after 40 days, radiotherapy and Plerixafor compared to radiotherapy alone (FIG. 5A)): lower blood flow
tumor size ([4]; over 80 days, radiation and Plerixafor (continuous infusion) compared to other treatment groups (FIG. 5B, 5C)): reduced tumor size
MTD [5]: ~1.8 mg/kg
Cmax and AUC0-∞ across the four dose levels ([6]; 10, 20, 40, 80 μg/kg): dose proportionality
Cmax ([6]; IV, 40 μg/kg): 292.8±67.0
Cmax ([6]; IV, 80 μg/kg): 503.9±29.6
Cmax ([6]; SC, 40 μg/kg): 123.5±27.9
Cmax ([6]; SC, 80 μg/kg): 238.3±17.3
terminal elimination half-life ([6]; following a single dose, bi-exponential elimination from plasma): 3.5 to 5 h
time of peak plasma levels ([6]; following subcutaneous administration): 0.5 to 1 h
bioavailability ([6]; human, in vivo): 80-90%
pharmacokinetics over the tested dose range [7]: linear pharmacokinetics
protein binding [8]: extensively protein bound
Sinus tachycardia (all Grade 1) ([9]; 400 and 480 μg/kg doses): observed in most subjects
maximum tolerated dose ([9]; doses of up to 480 μg/kg SC and IV in healthy volunteers and cancer patients): has not been established
common adverse events ([9]; doses up to 480 μg/kg): diarrhea, injection site erythema, perioral numbness, sinus tachycardia, headache, nausea, abdominal distention and injection site pain
total white blood cell (WBC) and peripheral blood (PB) CD34+ counts ([10]; 4 and 6 hours following a single injection): rapid and statistically significant increase
absolute CD34+ cell count (mean+/−SE) ([10]; 4 hours after injection, baseline 2.6+/−0.7/μL, P=0.002): 15.6 ± 3.9 µL⁻¹
absolute CD34+ cell count ([10]; 4 hours, 160 μg/kg group): 11.3 ± 2.7 µL⁻¹
absolute CD34+ cell count ([10]; 4 hours, 240 μg/kg group): 19.3 ± 6.9 µL⁻¹
absolute CD34+ cell count (mean+/−SE) ([10]; 6 hours after injection, P=0.003): 16.2 ± 4.3 µL⁻¹
absolute CD34+ cell count ([10]; 6 hours, 160 μg/kg group): 11.3 ± 2.5 µL⁻¹
absolute CD34+ cell count ([10]; 6 hours, 240 μg/kg group): 20.4 ± 7.6 µL⁻¹
toxicities ([10]; single injection 160 or 240 μg/kg): only grade 1 toxicities were observed
patients achieving ≥5×10^6 CD34+ cells/kg ([11]; Plerixafor plus G-CSF compared to G-CSF alone): More patients
CD34+ cells mobilized in patients who mobilized poorly with G-CSF alone ([11]; Plerixafor plus G-CSF, nine patients, all patients): > 2×10^6 CD34+ cells/kg
median day of platelet engraftment [11, 23]: 17 days
median day of polymorphonuclear leukocyte (PMN) engraftment [11, 23]: 10 days
drug-related serious or unexpected adverse effects ([11]; human, in vivo): no drug-related serious adverse effects or unexpected adverse effects
proportion of patients with NHL able to mobilize minimum (2×10^6 cells/kg) and target (5×10^6 cells/kg) CD34+ cells ([12]; Plerixafor 240 μg/kg added to G-CSF): significantly increased the proportion of patients
apheresis days to reach both targets ([12]; Plerixafor added to G-CSF): significantly fewer apheresis days
proportion of patients with MM able to mobilize the target (6×10^6 cells/kg) CD34+ cells ([13]; Plerixafor 240 μg/kg added to G-CSF compared with G-CSF alone): significantly increased the proportion of patients
apheresis days to reach target ([13]; Plerixafor added to G-CSF): significantly fewer apheresis days
sensitivity to the tyrosine kinase inhibitors Imatinib and Nilotinib [14]: confer added sensitivity
tumor cell chemotaxis [14]: inhibit tumor cell chemotaxis
early death due to complications from infection ([15]; 2 patients): 6%
treatment failure due to persistent disease ([15]; 14 patients): 44%
complete remission (CR+CRi) ([15]; 32 evaluable patients at 240 μg/kg, historical CR rates 25-35%): 50%
platelet recovery (plt >50 k/mm3), median ([15]; Plerixafor + MEC, range 20-40 d): 26 days
neutrophil recovery (ANC >500/mm3), median ([15]; Plerixafor + MEC, range 21-37): 27 days
time of peak AML blast mobilization ([15]; after administration): 6 to 8 h
One year KM estimate of overall survival ([15]; in vivo): 56%
common grade 3 adverse events ([15]; in vivo): cytopenias and infections
hyperleukocytosis ([15]; in vivo): No evidence of hyperleukocytosis
mobilization of AML blasts into the peripheral circulation, mean increase ([15]; range 0.9-7.3 fold): 2.5 fold
Plerixafor unrelated deaths ([16]; 4 patients, 240 μg/kg): 17%
complete response (CR) ([16]; 14 of 21 patients with available data): 67%
DLTs ([16]; 240, 320, 400, 480 μg/kg IV): No DLTs have been reported
patients with adverse events at least possibly related to Plerixafor ([16]; Eighteen patients): 86%
patients with Grade 3 Plerixafor-related AEs ([16]; Four patients): 19%
patients with Grade 4 related AEs ([16]; One patient, 480 μg/kg cohort, thrombocytopenia and asymptomatic pulmonary embolism): 5%
time of peak PB AML blasts ([16]; day 2, after administration): 2 to 4 h
increase in PB AML blasts, mean ([16]; day 7): 1.51 fold
median time to neutrophil (0.5×109/L) recovery for responders ([16]; in vivo): 19.5 (range 13-35) days
median time to platelet (100×109/L) recovery for responders ([16]; in vivo): 21 (range 17-37) days
rise in PB AML blasts, mean increase ([16]; infusion on day 2): 3.01 fold
severity of the majority of related adverse events ([16]; mainly gastrointestinal disorders): grade ½
early death due to complications from intracranial hemorrhage ([17]; 1 patient): 4%
treatment failure due to persistent disease ([17]; 1 patient): 4%
Grade I-II GVHD ([17]; 10/27 patients): 37%
treatment failure due to relapsed disease ([17]; 10 patients): 37%
patients with common grade 3 adverse events ([17]; 24/27, neutropenic fever, infections, or rash): 89%
Median progression-free survival (PFS) ([17]; all patients, 95% CI: 18.1-33.9 wks): 26.6 wks
Grade III-IV GVHD ([17]; human, in vivo, iv): no occurrences
toxicities ascribed to the G-CSF/Plerixafor component of the regimen ([17]; human, in vivo): no toxicities ascribed
patients achieving a CR ([17]; of the 19 patients with active disease at study entry): 18
platelet recovery (plt >20 k/mm3), median ([17]; range 9-74 d): 12 days
neutrophil recovery (ANC >500/mm3), median ([17]; range 10-19): 12.5 days
Median progression-free survival (PFS) ([17]; relapsed patients, 95% CI: 12.1-26.6 wks): 15.7 wks
MR [18, 24]: 13%
complete response (CR) [18, 24]: 4%
overall response rate (including MR) [18, 24]: 22%
progressive disease (PD) as best response [18, 24]: 13%
very good partial response (VGPR) [18, 24]: 4%
Dose limiting toxicities including insomnia, restlessness, and psychosis ([18]; dose level 6 (Plerixafor 400 μg/kg and bortezomib 1.3 mg/m^2)): observed in two patients
de-adhesion of MM cells and accessory cells ([18]; in vivo): transient de-adhesion of MM cells and accessory cells in vivo in most of the patients
Grade 3 anemia ([18]; with bortezomib): 10%
Grade 3 bone fracture due to myeloma bone disease ([18]; with bortezomib): 10%
Grade 3 hypercalcemia ([18]; with bortezomib): 10%
Grade 3 hyponatremia ([18]; with bortezomib): 10%
Grade 3 hypophosphatemia ([18]; with bortezomib): 20%
Grade 3 lymphopenia ([18]; with bortezomib): 40%
grade 4 toxicities ([18]; with bortezomib): no grade 4 toxicities
tolerability of the combination ([18]; with bortezomib): well tolerated
mobilization of CLL cells ([19]; 80, 160, 240, 320 μg/kg, preliminary results): mobilized to the peripheral blood in a dose-dependent fashion
tolerability of the combination of Plerixafor and rituximab ([19]; CLL patients with WBC <50×109/L): well tolerated
dose limiting toxicities ([19]; with rituximab): no dose limiting toxicities were reported
most common adverse events ([19]; with rituximab): nausea, fatigue, chills, and diarrhea
remissions ([19]; with rituximab): partial remissions were seen in a proportion of patients
adverse events that occurred more frequently with Plerixafor than placebo ([20]; G-CSF plus Plerixafor 240 μg/kg SC): insomnia, headache, dizziness, diarrhea, nausea, flatulence, abdominal pain, vomiting, abdominal distention, dry mouth, stomach discomfort, constipation, dyspepsia, hypoaesthesia oral, arthralgia, musculoskeletal pain, hyperhidrosis, erythema, injection site reactions, fatigue, and malaise
tolerability ([20]; Plerixafor 240 μg/kg in conjunction with G-CSF, NHL or MM): well-tolerated
PMN and PLT engraftment of mobilized hematopoietic stem cells ([20]; Plerixafor and G-CSF compared to G-CSF alone, both trials): equally capable of prompt and durable PMN and PLT engraftment
inhibition of the binding of SDF-1a (CXCL12) to CXCR4 [21]: reversible inhibitor
approximate human equivalent dose of early adverse neurologic effects [22]: 470-940 μg/kg
